The source of these data is patent publication EP4631959A2, “NOVEL MINIGASTRIN-DERIVED CHOLECYSTOKININ 2 RECEPTOR BINDING MOLECULES FOR IMAGING AND TARGETED RADIOTHERAPY” (priority 2022, dated 2024).

Where two headings read alike, the source gives them in different places. Starred links: 1 amine or outer side, 2 acyl side, 3 side chain; linkers in the order of their positions; H or OH if unused. Non-standard residues stand in square brackets, D forms with d. Residues, ends and D or L forms follow the SMILES beside them. *: point of attachment. DOTA = O=C(O)CN1CCN(CC(=O)O)CCN(CC(=O)*)CCN(CC(=O)O)CC1; PEG12 = NCCOCCOCCOCCOCCOCCOCCOCCOCCOCCOCCOCCOCCC(=O)O; d(γGlu) = O=C(O)[C@@H](CCC(=O)[*:2])N[*:1]; PEG8 = NCCOCCOCCOCCOCCOCCOCCOCCOCCC(=O)O; 1Nal = N[C@@H](Cc1cccc2ccccc12)C(=O)O; PEG6 = NCCOCCOCCOCCOCCOCCOCCC(=O)O; PEG5 = NCCOCCOCCOCCOCCOCCC(=O)O; NMeNle = CCCC[C@H](NC)C(=O)O

The target of one series is T1, CCK-2R (Rattus norvegicus, UniProt P30553).
T1 construct: The CCK-2R expressing rat pancreatic tumor cells AR4-2J; host or cells: AR4-2J rat pancreatic tumor cells
T1 sequence (P30553 1-452): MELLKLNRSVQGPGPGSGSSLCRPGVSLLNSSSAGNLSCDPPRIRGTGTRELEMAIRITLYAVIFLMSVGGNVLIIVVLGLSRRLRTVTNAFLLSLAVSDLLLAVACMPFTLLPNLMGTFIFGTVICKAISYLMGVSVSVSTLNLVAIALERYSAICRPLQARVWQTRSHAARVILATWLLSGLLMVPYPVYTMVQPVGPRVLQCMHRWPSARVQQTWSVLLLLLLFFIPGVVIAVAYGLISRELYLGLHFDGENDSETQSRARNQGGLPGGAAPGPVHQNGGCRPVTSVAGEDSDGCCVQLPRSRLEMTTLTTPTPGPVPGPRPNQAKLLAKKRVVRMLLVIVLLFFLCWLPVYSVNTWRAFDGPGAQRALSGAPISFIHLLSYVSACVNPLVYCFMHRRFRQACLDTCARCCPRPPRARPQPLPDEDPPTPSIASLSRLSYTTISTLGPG
The series is described as follows: Determination of IC50: CCK-2R affinity on AR4-2J cells, competition with [^177Lu]Lu-DOTA-PP-F11N. It is filed as binding. As for the experimental part: AR4-2J cells were harvested 24 ± 2 h before the experiment and seeded in 24-well plates (2.0 × 10^5 cells in 1 mL/well). After removal of the nutrient medium (RPMI 1640, 5 mM L-Gln, 5 mL non-essential amino acids (100×), 10% FCS), the cells were washed once with 500 µL PBS. Thereafter, 200 µL nutrient medium (5% BSA, v/v) were added. Next, 25 µL per well of solutions containing either nutrient medium (5% BSA, v/v) as control or the respective compound in increasing concentration (10^-10 - 10^-4 M), were added with subsequent addition of 25 µL [^177Lu]Lu-DOTA-PP-F11N (0.3 pmol/well).
All experiments were performed in triplicate for each concentration. After 3 h incubation at 37 °C, the experiment was terminated by removal of the medium and consecutive rinsing with 300 µL PBS. The media of both steps were combined in one fraction and represent the amount of free radiolabeled reference. Afterwards, the cells were lysed with 300 µL of 1 M NaOH for at least 15 min and united with the 300 µL NaOH of the following washing step. Quantification of bound and free radiolabeled reference was accomplished in a γ-counter. IC50 determination for each conjugate was repeated twice.

Series [1] can be described thus: n-Octanol-PBS distribution coefficient (logD7.4). It is filed as physicochemical. Particulars: pH = 7.4, ^177Lu-labeled. As to the method:
Approximately 1 MBq of the labeled tracer was dissolved in 1 mL of a 1/1 mixture (v/v) of phosphate buffered saline (PBS, pH = 7.4) and n-octanol in an Eppendorf tube (1.5 mL). After vigorous mixing of the suspension for 3 min at rt, the vial was centrifuged at 9,000 rpm for 5 min (Biofuge 15, Heraeus Sepatech, Osterode, Germany) and 200 µL aliquots of both layers were measured in a γ-counter. The experiment was repeated at least five times.

Setting [2] is: AR4-2J cells; ^natLu-labeled; read-out: IC50 [nM] (n = 3), ^natLu-labeled.
Where [3] appears, read: read-out: IC50 [nM] (n = 3), ^natLu-labeled; AR4-2J cells; ^natLu-labeled.

As for `CCCC[C@@H](C(=O)N[C@@H](CC(=O)O)C(=O)N[C@@H](Cc1cccc2ccccc12)C(N)=O)N(C)C(=O)[C@H](Cc1c[nH]c2ccccc12)NC(=O)CCOCCOCCOCCOCCOCCNC(=O)CC[C@@H](NC(=O)CN1CCN(CC(=O)O)CCN(CC(=O)O)CCN(CC(=O)O)CC1)C(=O)O` [DOTA-CCK-78, DOTA-γ-glu-(PEG)4-Trp-(N-Me)Nle-Asp-1-Nal-NH2] ({DOTA-d(γGlu)-PEG5}-W[NMeNle]D[1Nal]-NH2), on CCK-2R (setting [2]), the IC50 (in general, the concentration that inhibits the measured activity by half) stood at 6.7 ± 0.8 nM. For the same compound, the “logD7.4 (n ≥ 5), ^177Lu-labeled” value in series [1] is reported as −2.61 ± 0.06.
In the same order, the values of `CCCC[C@@H](C(=O)N[C@@H](CC(=O)O)C(=O)N[C@@H](Cc1cccc2ccccc12)C(N)=O)N(C)C(=O)[C@H](Cc1c[nH]c2ccccc12)NC(=O)CCOCCOCCOCCOCCOCCOCCNC(=O)CC[C@@H](NC(=O)CN1CCN(CC(=O)O)CCN(CC(=O)O)CCN(CC(=O)O)CC1)C(=O)O` [DOTA-CCK-79, DOTA-γ-glu-(PEG)5-Trp-(N-Me)Nle-Asp-1-Nal-NH2] ({DOTA-d(γGlu)-PEG6}-W[NMeNle]D[1Nal]-NH2) are 7 ± 0.6 nM and −2.59 ± 0.05.
For the compound `CCCC[C@@H](C(=O)N[C@@H](CC(=O)O)C(=O)N[C@@H](Cc1cccc2ccccc12)C(N)=O)N(C)C(=O)[C@H](Cc1c[nH]c2ccccc12)NC(=O)CCOCCOCCOCCOCCOCCOCCOCCOCCNC(=O)CC[C@@H](NC(=O)CN1CCN(CC(=O)O)CCN(CC(=O)O)CCN(CC(=O)O)CC1)C(=O)O` [DOTA-CCK-80, DOTA-γ-glu-(PEG)7-Trp-(N-Me)Nle-Asp-1-Nal-NH2] ({DOTA-d(γGlu)-PEG8}-W[NMeNle]D[1Nal]-NH2), the 50% inhibitory concentration (IC50) at CCK-2R (setting [2]) worked out at 7.9 ± 0.2 nM. Moreover, in series [1], the “logD7.4 (n ≥ 5), ^177Lu-labeled” value is on record as −2.51 ± 0.09.
The like results for `CCCC[C@@H](C(=O)N[C@@H](CC(=O)O)C(=O)N[C@@H](Cc1cccc2ccccc12)C(N)=O)N(C)C(=O)[C@H](Cc1c[nH]c2ccccc12)NC(=O)CCOCCOCCOCCOCCOCCOCCOCCOCCOCCOCCOCCOCCNC(=O)CC[C@@H](NC(=O)CN1CCN(CC(=O)O)CCN(CC(=O)O)CCN(CC(=O)O)CC1)C(=O)O` [DOTA-CCK-81, DOTA-γ-glu-(PEG)11-Trp-(N-Me)Nle-Asp-1-Nal-NH2] ({DOTA-d(γGlu)-PEG12}-W[NMeNle]D[1Nal]-NH2) were, in that order, 6.3 ± 0.7 nM and −2.47 ± 0.10.
Take `CCCC[C@H](NC(=O)[C@H](Cc1c[nH]c2ccccc12)NC(=O)CNC(=O)[C@H](Cc1ccc(O)cc1)NC(=O)[C@H](C)NC(=O)CC[C@@H](NC(=O)CC[C@@H](NC(=O)CC[C@@H](NC(=O)CC[C@@H](NC(=O)CC[C@@H](NC(=O)CC[C@@H](NC(=O)[C@@H](CNC(=O)c1ccc([Si](F)(C(C)(C)C)C(C)(C)C)cc1)NC(=O)CN1CCN(CC(=O)O)CCN(CC(=O)O)CCN(CC(=O)O)CC1)C(=O)O)C(=O)O)C(=O)O)C(=O)O)C(=O)O)C(=O)O)C(=O)N[C@@H](CC(=O)O)C(=O)N[C@@H](Cc1ccccc1)C(N)=O` [DOTA-MG-SiFA-19]: on CCK-2R (setting [2]), the half-inhibitory concentration (IC50) amounted to 7.54 ± 0.26 nM. Moreover, in series [1], the “logD7.4 (n ≥ 5), ^177Lu-labeled” value is on record as −2.70 ± 0.09.
Consider `CCCC[C@H](NC(=O)[C@H](Cc1c[nH]c2ccccc12)NC(=O)CNC(=O)[C@H](Cc1ccc(O)cc1)NC(=O)[C@H](C)NC(=O)CC[C@@H](NC(=O)CC[C@@H](NC(=O)CC[C@@H](NC(=O)CC[C@@H](NC(=O)CC[C@@H](NC(=O)CC[C@@H](NC(=O)CC[C@@H](NC(=O)CC[C@@H](CO)NC(=O)[C@@H](CNC(=O)c1ccc([Si](F)(C(C)(C)C)C(C)(C)C)cc1)NC(=O)CN1CCN(CC(=O)O)CCN(CC(=O)O)CCN(CC(=O)O)CC1)C(=O)O)C(=O)O)C(=O)O)C(=O)O)C(=O)O)C(=O)O)C(=O)O)C(=O)N[C@@H](CC(=O)O)C(=O)N[C@@H](Cc1ccccc1)C(N)=O` [DOTA-MG-SiFA-29, DOTA-dap(SiFA)-Glutamol-(γ-glu)7-F11N], for which, at CCK-2R (setting [3]), the 50% inhibitory concentration (IC50) came out at 6.55 ± 1.23 nM. Also, in series [1], the “logD7.4 (n ≥ 5), ^177Lu-labeled” value is −1.88 ± 0.07.
In the same order, the values of `CCCC[C@@H](C(=O)N[C@@H](CC(=O)O)C(=O)N[C@@H](Cc1cccc2ccccc12)C(N)=O)N(C)C(=O)[C@H](Cc1c[nH]c2ccccc12)NC(=O)CNC(=O)[C@H](Cc1ccc(O)cc1)NC(=O)[C@H](C)NC(=O)CC[C@@H](NC(=O)CC[C@@H](NC(=O)CC[C@@H](NC(=O)CC[C@@H](NC(=O)CC[C@@H](NC(=O)CC[C@@H](NC(=O)CC[C@@H](NC(=O)CC[C@@H](NC(=O)[C@@H](CNC(=O)c1ccc([Si](F)(C(C)(C)C)C(C)(C)C)cc1)NC(=O)CN1CCN(CC(=O)O)CCN(CC(=O)O)CCN(CC(=O)O)CC1)C(=O)O)C(=O)O)C(=O)O)C(=O)O)C(=O)O)C(=O)O)C(=O)O)C(=O)O` [DOTA-MG-SiFA-40, DOTA-dap(SiFA)-(γ-glu)8-MGS5] are 8.27 ± 0.35 nM and −1.83 ± 0.04.
In the same order, the values of `CCCC[C@H](NC(=O)[C@H](Cc1c[nH]c2ccccc12)NC(=O)CNC(=O)[C@H](Cc1ccc(O)cc1)NC(=O)[C@H](C)NC(=O)CC[C@@H](NC(=O)CC[C@@H](NC(=O)CC[C@@H](NC(=O)CC[C@@H](NC(=O)CC[C@@H](NC(=O)CC[C@@H](NC(=O)CC[C@@H](NC(=O)CCCNC(=O)[C@@H](CNC(=O)c1ccc([Si](F)(C(C)(C)C)C(C)(C)C)cc1)NC(=O)CN1CCN(CC(=O)O)CCN(CC(=O)O)CCN(CC(=O)O)CC1)C(=O)O)C(=O)O)C(=O)O)C(=O)O)C(=O)O)C(=O)O)C(=O)O)C(=O)N[C@@H](CC(=O)O)C(=O)N[C@@H](Cc1ccccc1)C(N)=O` [DOTA-MG-SiFA-44, DOTA(-dap(SiFA)-GABA-(γ-glu)7-F11N] are 3.47 ± 0.27 nM and −2.01 ± 0.07.
Consider `CCCC[C@H](NC(=O)[C@H](Cc1c[nH]c2ccccc12)NC(=O)CNC(=O)[C@H](Cc1ccc(O)cc1)NC(=O)[C@H](C)NC(=O)CC[C@@H](NC(=O)CC[C@@H](NC(=O)CC[C@@H](NC(=O)CC[C@@H](NC(=O)CC[C@@H](NC(=O)CC[C@@H](NC(=O)CCCNC(=O)CCCNC(=O)[C@@H](CNC(=O)c1ccc([Si](F)(C(C)(C)C)C(C)(C)C)cc1)NC(=O)CN1CCN(CC(=O)O)CCN(CC(=O)O)CCN(CC(=O)O)CC1)C(=O)O)C(=O)O)C(=O)O)C(=O)O)C(=O)O)C(=O)O)C(=O)N[C@@H](CC(=O)O)C(=O)N[C@@H](Cc1ccccc1)C(N)=O` [DOTA-MG-SiFA-45, DOTA-dap(SiFA)-(GABA)2-(γ-glu)6-F11N], for which the IC50 on CCK-2R (setting [3]) amounted to 3.15 ± 0.12 nM. Besides, in series [1], the “logD7.4 (n ≥ 5), ^177Lu-labeled” value is listed as −1.98 ± 0.02.
For `CCCC[C@H](NC(=O)[C@H](Cc1c[nH]c2ccccc12)NC(=O)CNC(=O)[C@H](Cc1ccc(O)cc1)NC(=O)[C@H](C)NC(=O)CC[C@@H](NC(=O)CC[C@@H](NC(=O)CC[C@@H](NC(=O)CC[C@@H](NC(=O)CC[C@@H](NC(=O)CCCNC(=O)CCCNC(=O)CCCNC(=O)[C@@H](CNC(=O)c1ccc([Si](F)(C(C)(C)C)C(C)(C)C)cc1)NC(=O)CN1CCN(CC(=O)O)CCN(CC(=O)O)CCN(CC(=O)O)CC1)C(=O)O)C(=O)O)C(=O)O)C(=O)O)C(=O)O)C(=O)N[C@@H](CC(=O)O)C(=O)N[C@@H](Cc1ccccc1)C(N)=O` [DOTA-MG-SiFA-46, DOTA-dap(SiFA)-(GABA)3-(γ-glu)5-F11N], the IC50 at CCK-2R (setting [3]) came out at 5.52 ± 0.25 nM. Further, the “logD7.4 (n ≥ 5), ^177Lu-labeled” value in series [1] is −2.09 ± 0.07.
The like results for `CCCC[C@H](NC(=O)[C@H](Cc1c[nH]c2ccccc12)NC(=O)CNC(=O)[C@H](Cc1ccc(O)cc1)NC(=O)[C@H](C)NC(=O)CC[C@@H](NC(=O)CCCNC(=O)CC[C@@H](NC(=O)CCCNC(=O)CC[C@@H](NC(=O)CCCNC(=O)CC[C@@H](NC(=O)CCCNC(=O)[C@@H](CNC(=O)c1ccc([Si](F)(C(C)(C)C)C(C)(C)C)cc1)NC(=O)CN1CCN(CC(=O)O)CCN(CC(=O)O)CCN(CC(=O)O)CC1)C(=O)O)C(=O)O)C(=O)O)C(=O)O)C(=O)N[C@@H](CC(=O)O)C(=O)N[C@@H](Cc1ccccc1)C(N)=O` [DOTA-MG-SiFA-47, DOTA-dap(SiFA)-(GABA-γ-glu)4-F11N] were, in that order, 6.77 ± 1.01 nM and −1.93 ± 0.08.
